These results are taken from PubChem BioAssay AID602251 (NMMLSC, 2012).

Activity calls are given as the source filed them.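 How the source made its calls: active means fitted concentration giving half of the maximal binding block below 66 µM; inactive means the rest.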

The first experiment deals with anti-desmoglein 3 scFv antibody binding to human desmoglein 3 (DSG3). In words: blockers of pemphigus antibody–desmoglein 3 interaction – biochemical, DSG3-coupled beads, scFv-GFP, flow cytometry, Cherry Pick 1, dose response (AID 602251).
Conditions: not given
`O=C(CSc1ccc(Cl)cc1)Nc1cccc(-c2nc3ccccc3[nH]2)c1`: the EC50 is 59.2 µM.

Take `NS(=O)(=O)c1ccc(NC(=O)c2cc(-c3cccs3)nc3ccccc23)cc1`: the EC50 was 17.3 µM.

With `COc1ccc(N=C2S/C(=C\c3ccc(OCC(=O)O)cc3)C(=O)N2CCc2c[nH]c3ccccc23)cc1`, the EC50 was 15.8 µM.

Consider `COCCn1c(=NC(=O)CCS(=O)(=O)c2ccccc2)sc2cc(C(=O)OC)ccc21`, for which the EC50 was 25.4 µM.

With `NC(=O)c1ccsc1NC(=O)COC(=O)c1cc(=O)[nH]c2ccccc12`, the EC50 was 30.2 µM.

Consider `COCCCNC(=O)c1c(N)n(-c2ccc(S(N)(=O)=O)cc2)c2nc3ccccc3nc12`, for which the EC50 was 25.6 µM.

For `CC1CCN(S(=O)(=O)c2ccc3c(c2)c(=O)c(C(=O)NCc2cccs2)cn3C)CC1`, the concentration for a half-maximal effect (EC50) was 55.8 µM.

Turning to `O=C(NC1CCCCC1)C(c1ccc(O)cc1)N(CC1CCCO1)C(=O)C1COc2ccccc2O1` (stereo not given), the EC50 is 37.7 µM.

As for `Cn1c(SCC(=O)NC2CCCCC2)nnc1-c1cc2cc(Cl)ccc2o1`, the EC50 is 21.1 µM.

`Cc1ccc(NC(=O)CN2C(=O)N/C(=C/c3cccn3-c3ccc(C(=O)O)cc3)C2=O)cc1`: the EC50 is 48.4 µM.

`CCc1nnc(NC(=O)CSc2nncc(=O)n2N)s1`: the EC50 is 55 µM.

For the compound `CCN(CC)c1ccc(NC(=O)CCCCC(=O)Nc2ccc(N(CC)CC)cc2)cc1`, the EC50 is 27.2 µM.

Take `COc1ccccc1NC(=O)c1cc(C(=O)Nc2ccccc2OC)cc([N+](=O)[O-])c1`: the EC50 was 25.3 µM.

Regarding `COc1cccc2c1NC(C(=O)O)C1CC=CC21` (stereo not given), the EC50 is 32.1 µM.

As for `CCCCOC(=O)Nc1sc2nc(C)cc(C)c2c1-n1cccc1`, the EC50 is 41.9 µM.

As to `COc1cc(C(=O)Nc2cccc(-c3nc4cc(C)ccc4o3)c2C)cc(OC)c1OC`, the EC50 is 24.6 µM.

Regarding `O=C(Nc1ccc(F)cc1)Nc1ccc([N+](=O)[O-])cn1`, the EC50 is 21.5 µM.

In the case of `CCOC(=O)Cn1c(=NC(=O)c2cccs2)sc2cc(C(=O)OC)ccc21`, the EC50 is 26 µM.

Turning to `Clc1ccc2nc(CSc3nnc(-c4c[nH]c5ccccc45)o3)cn2c1`, the EC50 is 24.8 µM.

Turning to `C=CCNC(=O)c1c(N)n(-c2cccc(S(N)(=O)=O)c2)c2nc3ccccc3nc12`, the half-maximal effective concentration (EC50) is 58.5 µM.

Still in this experiment, the particulars now being: at 66.1 µM (top of the series).
For `CC(=O)c1c(C)n(-c2ccc(C)cc2)c2ccc(O)cc12`, the “binding response, lower = inhibition” value was “inactive”.

In the case of `COc1ccc(C(=O)Nc2ccc(NC(=O)c3cnccn3)cn2)cc1`, the “binding response, lower = inhibition” value was “inactive”.

`COc1ccc(C2=C(Nc3ccc(F)cc3)c3ccccc3C2=O)cc1`: the “binding response, lower = inhibition” value was “inactive”.

On to `C=CCSc1nc(N)c(C(=O)Nc2ccccc2)cc1C#N`, for which the “binding response, lower = inhibition” value is “inactive”.

Take `CCOC(=O)c1cc(-c2ccc(/C=C3/C(=O)N(c4ccc(C(=O)O)cc4)N=C3C)o2)ccc1Cl`: the “binding response, lower = inhibition” value is “inactive”.

For the compound `O=C(COc1cc2oc(=O)c3c(c2cc1Cl)CCC3)Nc1ccccn1`, the “binding response, lower = inhibition” value is “inactive”.

In the case of `NC(=O)c1ccc(NC(=O)CSc2nnc(-c3ccc4c(c3)OCO4)o2)cc1`, the “binding response, lower = inhibition” value was “inactive”.

As for `O=C(Nc1ccc(-c2cn3c(n2)SCC3)cc1)c1ccc2c(c1)OCO2`, the “binding response, lower = inhibition” value is “inactive”.

Consider `CCOC(=O)CN1C(=O)/C(=C/c2ccccc2Br)Oc2ccccc21`, for which the “binding response, lower = inhibition” value is “inactive”.

With `O=C(Nc1cc(Cl)ccc1Cl)c1ccc(OC(=O)c2ccco2)cc1`, the “binding response, lower = inhibition” value is “inactive”.

Consider `CN(C(=O)CSc1nc2cc([N+](=O)[O-])ccc2n1-c1ccc(F)cc1)C1CCS(=O)(=O)C1` (stereo not given), for which the “binding response, lower = inhibition” value is “inactive”.

Take `COc1ccccc1-n1cnc2c(c1=O)c1nc3ccccc3nc1n2-c1ccc(C)c(C)c1`: the “binding response, lower = inhibition” value was “inactive”.

As to `COc1ccc2cc(C#N)c(SCC(=O)N3CC(=O)Nc4ccccc43)nc2c1`, the “binding response, lower = inhibition” value was “inactive”.

Consider `C#CCn1c(=NC(=O)c2sc3ccccc3c2Cl)sc2cc(S(N)(=O)=O)ccc21`, for which the “binding response, lower = inhibition” value is “inactive”.

For `Cc1cc(=O)oc2c(C)c(OCC(=O)NCc3ccccn3)ccc12`, the “binding response, lower = inhibition” value was “inactive”.

Take `CCOC(=O)c1cn(-c2ccc([N+](=O)[O-])cc2)c2cc(Cl)c([N+](=O)[O-])cc2c1=O`: the “binding response, lower = inhibition” value is “inactive”.

Regarding `CC(C)OC(=O)CSc1nc2c(cc1C#N)CCCCC2`, the “binding response, lower = inhibition” value is “inactive”.

As to `Cc1cccc(NC(=O)Cn2nnc(C(=O)NCc3cccs3)c2N)c1C`, the “binding response, lower = inhibition” value is “inactive”.

For the compound `COc1cc2sc3ccc(C#Cc4ccccn4)cc3c(=O)c2cc1OC`, the “binding response, lower = inhibition” value was “inactive”.

In the case of `Cc1nnc2ccc(-c3ccc(NS(=O)(=O)c4ccccc4)cc3)nn12`, the “binding response, lower = inhibition” value was “inactive”.

As for `O=C(Nc1ccc(NS(=O)(=O)c2ccccc2)cc1)c1ccc(Cl)cc1`, the “binding response, lower = inhibition” value was “inactive”.

In the case of `O=C(COC(=O)Cc1ccc(-c2ccccc2)cc1)NCc1ccc(F)cc1`, the “binding response, lower = inhibition” value was “inactive”.

For the compound `COc1cccc(C(C(=O)NC2CCCCC2)N(CCN2CCOCC2)C(=O)C2COc3ccccc3O2)c1` (stereo not given), the “binding response, lower = inhibition” value was “inactive”.

Take `CCOc1ccc(Nc2ncnc3c2cnn3-c2ccccc2)cc1`: the “binding response, lower = inhibition” value was “inactive”.

Turning to `CCc1ccc(OCC(=O)Nc2ccc(N3CCN(C(=O)c4ccccc4)CC3)cc2)cc1`, the “binding response, lower = inhibition” value is “inactive”.

As for `Cc1ccc(O)c(NC(=O)c2ccc3c(c2)C(=O)N(Cc2cccnc2)C3=O)c1`, the “binding response, lower = inhibition” value is “inactive”.

Turning to `O=C(O)CCC(=O)NCCC1=c2ccccc2=N/C1=C\c1c(O)n(Cc2ccc(F)cc2)c(=S)[nH]c1=O`, the “binding response, lower = inhibition” value is “inactive”.

With `Cc1cc(C)cc(N(CC(=O)NC2CCC(C)CC2)S(=O)(=O)c2c(C)noc2C)c1` (stereo not given), the “binding response, lower = inhibition” value was “inactive”.

For the compound `COc1ccc(CCNC(=O)COc2ccc(-c3ccc(C)cc3)cc2)cc1OC`, the “binding response, lower = inhibition” value is “inactive”.

As for `CCCCN1C=C(C(=O)OC)C(c2ccccc2C(F)(F)F)C(C(=O)OC)=C1`, the “binding response, lower = inhibition” value is “inactive”.

Turning to `Cc1ccc(NC(=O)CSc2ccc(C(N)=O)cc2[N+](=O)[O-])cc1C`, the “binding response, lower = inhibition” value is “inactive”.

`CCCNC(=O)c1c(N)n(-c2ccc(S(N)(=O)=O)cc2)c2nc3ccccc3nc12`: the “binding response, lower = inhibition” value was “inactive”.

As for `O=C(CSc1nnc(Cc2ccccc2)o1)N1CCc2ccccc21`, the “binding response, lower = inhibition” value is “inactive”.

Consider `N#Cc1cn(-c2ccccc2)nc1-c1ccc2c(c1)OCCO2`, for which the “binding response, lower = inhibition” value is “inactive”.

For `O=C(Nc1cccc([N+](=O)[O-])c1)c1ccc(CSc2ccccc2)cc1`, the “binding response, lower = inhibition” value is “inactive”.

Take `CN1C(=O)/C(=C/c2cccn2-c2ccc3ccccc3c2)C(=O)NC1=S`: the “binding response, lower = inhibition” value was “inactive”.

For `CCc1ccc(-c2cc(C(=O)Nc3ccc(S(=O)(=O)NC(C)=O)cc3)c3ccccc3n2)cc1`, the “binding response, lower = inhibition” value was “inactive”.

Turning to `OCc1cn(-c2ccccc2)nc1-c1ccc(-c2nn(-c3ccccc3)cc2CO)cc1`, the “binding response, lower = inhibition” value is “inactive”.

In the case of `Cc1c(C(=O)Nc2ccc(OCc3ccccc3)cc2)cccc1[N+](=O)[O-]`, the “binding response, lower = inhibition” value was “inactive”.

For `COc1cc(/C=C2/C(=N)N3OC(C)=CC3=NC2=O)ccc1OC(=O)c1ccco1`, the “binding response, lower = inhibition” value is “inactive”.

For `COc1ccc(C(=O)Nc2ccc(Oc3ncnc4sc(-c5ccccc5)cc34)cc2)cc1OC`, the “binding response, lower = inhibition” value is “inactive”.

For the compound `O=C1c2ccc(-c3ccc(F)cc3OCc3ccccc3)cc2S(=O)(=O)c2cccc(C(=O)N3CCN(c4ncc(Br)cn4)CC3)c21`, the “binding response, lower = inhibition” value is “inactive”.

Turning to `COc1ccccc1NS(=O)(=O)c1cccc(NC(=O)c2cc3ccccc3oc2=O)c1`, the “binding response, lower = inhibition” value is “inactive”.

`CSCCC(NC(=O)C12CC3CC(CC(C3)C1)C2)C(=O)OCC(=O)c1ccc(C)cc1` (stereo not given): the “binding response, lower = inhibition” value is “inactive”.

For `O=C(Nc1ccc(Nc2ccncc2)cc1)c1ccc(Nc2ccnc3ccc([N+](=O)[O-])cc23)cc1`, the “binding response, lower = inhibition” value is “inactive”.

For the compound `CCCCN(C)CCNC(=O)c1cc(-c2cccnc2)nc2ccc(S(=O)(=O)N3CCC(C)CC3)cc12`, the “binding response, lower = inhibition” value was “inactive”.

On to `COc1ccc(NC(=O)c2ccc3c(c2)C(=O)N(Cc2ccncc2)C3=O)cc1S(N)(=O)=O`, for which the “binding response, lower = inhibition” value is “inactive”.

Turning to `O=C(Nc1ccc2oc(=O)ccc2c1)c1ccc(-c2ccccc2[N+](=O)[O-])o1`, the “binding response, lower = inhibition” value was “inactive”.

Regarding `O=C(NCc1ccccc1)c1ccc(C(=O)NCc2ccccc2)cc1`, the “binding response, lower = inhibition” value is “inactive”.

As for `CC(=O)c1ccc(NC(=O)CSc2ccsc2[N+](=O)[O-])cc1`, the “binding response, lower = inhibition” value is “inactive”.

Consider `CCOc1ccc(N(CC(=O)NCCSCc2ccco2)S(=O)(=O)c2ccc(C)cc2)cc1`, for which the “binding response, lower = inhibition” value was “inactive”.

As to `CCOc1ccc(-n2nc3ccc(NC(=O)c4ccc5c(c4)OCCO5)cc3n2)cc1`, the “binding response, lower = inhibition” value is “inactive”.

With `O=C(Nc1ccc(N2CCN(C(=O)c3ccccc3)CC2)cc1)c1cc2ccccc2o1`, the “binding response, lower = inhibition” value was “inactive”.

For `Cc1cc(NC(=O)c2cc(-c3ccccn3)nc3ccc(Br)cc23)no1`, the “binding response, lower = inhibition” value is “inactive”.

On to `Cc1ccsc1-c1nc(-c2ccccc2)c(-c2ccccc2)[nH]1`, for which the “binding response, lower = inhibition” value was “inactive”.

With `CCOC(=O)C1=C(N)n2c(s/c(=C\c3cccnc3)c2=O)=C(C(=O)OC)C1c1cccnc1` (stereo not given), the “binding response, lower = inhibition” value is “inactive”.

`CCOc1ccc(N2CSC(=S)N(c3ccc(OCC)cc3)C2)cc1`: the “binding response, lower = inhibition” value is “inactive”.

For `CSc1ccccc1OCc1cc(C(=O)NCCC2=CCCCC2)no1`, the “binding response, lower = inhibition” value is “inactive”.

On to `O=[N+]([O-])c1ccc(NCCNc2ccc([N+](=O)[O-])cc2)cc1`, for which the “binding response, lower = inhibition” value was “inactive”.

For the compound `COc1cc(OC)cc(N(C(=O)C2COc3ccccc3O2)C(C(=O)NC2CCCCC2)c2ccc(O)cc2)c1` (stereo not given), the “binding response, lower = inhibition” value was “inactive”.

For orientation: EC50 means the midpoint of the concentration-response curve.
